Measured values: patent publication US20080248131A1 (Metaproteomics, LLC, priority 2005, published 2008)

Columns and labels:
[1] = test system: adiponectin secretion, 3T3-L1 adipocytes; test: Adiponectin secretion in LPS/3T3-L1 adipocytes; type: cell-based, murine
[2] = test system: adiponectin secretion, 3T3-L1 adipocytes; test: Adiponectin secretion from insulin-resistant 3T3-L1 adipocytes; type: cell-based, murine
[3] = test system: IL-6 secretion, 3T3-L1 adipocytes; test: IL-6 secretion from TNFα-treated 3T3-L1 adipocytes; conditions: 10 ng TNFα/ml
[4] = test system: adiponectin secretion, 3T3-L1 adipocytes; test: Adiponectin secretion from TNFα-treated 3T3-L1 adipocytes; type: cell-based, murine; conditions: 10 ng TNFα/ml
Description: 3T3-L1 cells were seeded at an initial density of 1×10^4 cells/cm^2 in 96-well plates. For two days, the cells were allowed grow to reach confluence. Following confluence, the cells were forced to differentiate into adipocytes by the addition of differentiation medium; this medium consisted of (1) 10% FBS/DMEM (high glucose); (2) 0.5 mM methylisobutylxanthine; (3) 0.5 μM dexamethasone and (4) 10 μg/ml insulin (MDI medium). From Day 3 through Day 5, the medium was changed to post-differentiation medium consisting of 10% FBS in DMEM. […] On Day 6, the supernatant medium was sampled for adiponectin determination.
Statistical Calculations and Interpretation—All assays were preformed in duplicate. […] Differences among the doses and test agents were determined using the Student's t-test without correction for multiple comparisons; the nominal five percent probability of a type I error was selected.

[5] = test system: NF-kBp65 nuclear translocation; test: Nuclear NF-kBp65 in TNFα-treated 3T3-L1 adipocytes; type: cell-based, murine; conditions: three or 24 hours
Description: Cell Culture and Treatment—Following differentiation 3T3-L1 adipocytes were maintained in post-differentiation medium for an additional 40 days. […] Hops derivatives and the positive control pioglitazone were tested at concentrations of 2.5, and 5.0 μg/ml. Test materials were added 1 hour prior to and nuclear extracts were prepared three and 24 hours following treatment with TNFα.
ELISA—3T3-L1 adipocytes were maintained in growth media for 40 days following differentiation. Nuclear NF-kBp65 was determined using the TransAM™ NF-kB kit from Active Motif (Carlsbad, Calif.) was used with no modifications. Jurkat nuclear extracts provided in the kit were derived from cells cultured in medium supplemented with 50 ng/ml TPA (phorbol, 12-myristate, 13 acetate) and 0.5 μM calcium ionophore A23187 for two hours at 37° C. immediately prior to harvesting.
Protein assay—Nuclear protein was quantified using the Active Motif Fluorescent Protein Quantification Kit.

[6] = test system: DBA/J mice; test: Collagen induced rheumatoid arthritis murine model, arthritic index; type: in vivo, mouse; conditions: 10 mg/kg
Description: The mice were injected intradermally on day 0 with a mixture containing 100 μg of type II collagen and 100 μg of Mycobacterium tuberculosis in squalene. A booster injection was repeated on day 21. Mice were examined on days 22-27 for arthritic signs with nonresponding mice removed from the study.
Arthritic symptomology was assessed (scored 0-4) for each paw using a arthritic index as described below. Under this arthritic index 0=no visible signs; 1=edema and/or erythema: single digit; 2=edema and or erythema: two joints; 3=edema and or erythema: more than two joints; and 4=severe arthritis of the entire paw and digits associated with ankylosis and deformity.

[7] = test system: human PI3K-β, PI3K-γ, and PI3K-δ; test: PI3K isoform inhibition (Example 3); type: biochemical; conditions: 50 μg/ml
Description: Additionally examined was an Acacia nilotica heartwood extract. All compounds were tested at 50 μg/ml. The results are presented graphically as FIG. 3. […] Mg-IAA was approximately 3-fold more inhibitory to PI3K-β than to PI3K-γ or PI3K-δ.

SMILES: CC(=O)Oc1ccccc1C(=O)O [Aspirin, aspirin]
- adiponectin secretion in LPS-treated adipocytes, in words [1]: failed to induce adiponectin secretion

SMILES: CC(C)CCC1=C(O)C(C(=O)C(C)C)=C(O)C(CCC(C)C)(CCC(C)C)C1=O [hexahydro colupulone]
- concentration of maximal observed adiponectin secretion [2]: 12.5 µg/mL

SMILES: COc1ccc2c(c1)c(CC(=O)O)c(C)n2C(=O)c1ccc(Cl)cc1 [indomethacin]
- IL-6 secretion in presence of TNFα, in words [3]: no anti-inflammatory effect

SMILES: CCc1ccc(CCOc2ccc(CC3SC(=O)NC3=O)cc2)nc1 (centres unmarked) [pioglitazone]
- maximal restoration of adiponectin secretion, times the TNFα treatment [4]: 1.47 times
- nuclear NF-kBp65, in words [5]: did not inhibit

SMILES: C[C@]12C=CC(=O)C=C1CC[C@@H]1[C@@H]2[C@@H](O)C[C@@]2(C)[C@H]1CC[C@]2(O)C(=O)CO [prednisolone]
- days with significant reduction of arthritic index [6]: days 30-42

SMILES: O=C(O)c1ccccc1O [salicylic acid]
- adiponectin secretion in LPS-treated adipocytes, in words [1]: failed to induce adiponectin secretion

SMILES: COc1cc(O)c(CC=C(C)C)c(O)c1C(=O)/C=C/c1ccc(O)cc1 [xanthohumol]
- effect on PI3K isoforms, in words [7]: more inhibitory to PI3K-γ than to PI3K-β or PI3K-δ
